According to US6552196B2, “Quinolone carboxylic acid derivatives” (Dong Wha Pharmaceutical Industrial Co., Ltd., priority 1997, dated 2003):
In brackets after ≈: the same amount, converted by molar mass.

Legend:
Test in all cases: In vitro antibacterial activity (MIC), agar dilution
Format in all cases: cell-based
[1] = test system: Pseudomonas aeruginosa 1771M; settings: Pseudomonas aeruginosa, 1771M, 18 h, read-out: minimum inhibitory concentration (MIC)
Description: (§1) 10^7 cfu/ml of bacteria were inoculated and cultured for 18 hours at 37° C. and then the antibacterial activities were measured. For the methicillin resistant strains the activities were measured after 48 hours of cultivation at 30° C. Hoechst Standard strains were used for the testings.

[2] = test system: Pseudomonas aeruginosa 1771; settings: 2-fold agar dilution, Muller-Hinton agar, 18 hours at 37° C., read-out: minimum inhibitory concentration (MIC)
Description: as §1

Esherichia coli TEM = settings: 2-fold agar dilution, Muller-Hinton agar, 18 hours at 37° C., read-out: minimum inhibitory concentration (MIC)
Description: as §1

[3] = test system: Streptococcus faecium MD 8b; settings: Enterococcus faecium, MD8B, 2-fold agar dilution, Muller-Hinton agar, 18 hours at 37° C., read-out: minimum inhibitory concentration (MIC)
Description: as §1

[4] = test system: Staphylococcus aureus 285; settings: 2-fold agar dilution, Muller-Hinton agar, 18 hours at 37° C., read-out: minimum inhibitory concentration (MIC)
Description: as §1

Enterobacter clocae P99 = settings: 2-fold agar dilution, Muller-Hinton agar, 18 hours at 37° C., read-out: minimum inhibitory concentration (MIC)
Description: as §1

[5] = test system: Streptococcus pyogens 308A; settings: 2-fold agar dilution, Muller-Hinton agar, 18 hours at 37° C., read-out: minimum inhibitory concentration (MIC)
Description: as §1

Klebsiella oxytoca 1082E = settings: 2-fold agar dilution, Muller-Hinton agar, 18 hours at 37° C., read-out: minimum inhibitory concentration (MIC)
Description: as §1

Esherichia coli 078 = settings: 2-fold agar dilution, Muller-Hinton agar, 18 hours at 37° C., read-out: minimum inhibitory concentration (MIC)
Description: as §1

[6] = test system: Enterobacter clocae 1321E; settings: 2-fold agar dilution, Muller-Hinton agar, 18 hours at 37° C., read-out: minimum inhibitory concentration (MIC)
Description: as §1

[7] = test system: Pseudomonas aeruginosa 9027; settings: 2-fold agar dilution, Muller-Hinton agar, 18 hours at 37° C., read-out: minimum inhibitory concentration (MIC)
Description: as §1

Esherichia coli DC0 = settings: 2-fold agar dilution, Muller-Hinton agar, 18 hours at 37° C., read-out: minimum inhibitory concentration (MIC)
Description: as §1

Esherichia coli DC2 = settings: 2-fold agar dilution, Muller-Hinton agar, 18 hours at 37° C., read-out: minimum inhibitory concentration (MIC)
Description: as §1

Salmonella typhimurium = settings: Salmonella enterica, 2-fold agar dilution, Muller-Hinton agar, 18 hours at 37° C., read-out: minimum inhibitory concentration (MIC)
Description: as §1

[8] = test system: Pseudomonas aeruginosa 1592E; settings: 2-fold agar dilution, Muller-Hinton agar, 18 hours at 37° C., read-out: minimum inhibitory concentration (MIC)
Description: as §1

[9] = test system: Staphylococcus aureus 503; settings: 2-fold agar dilution, Muller-Hinton agar, 18 hours at 37° C., read-out: minimum inhibitory concentration (MIC)
Description: as §1

Esherichia coli 1507E = settings: 2-fold agar dilution, Muller-Hinton agar, 18 hours at 37° C., read-out: minimum inhibitory concentration (MIC)
Description: as §1

[10] = test system: Klebsiella aerogenes 1522E; settings: 2-fold agar dilution, Muller-Hinton agar, 18 hours at 37° C., read-out: minimum inhibitory concentration (MIC)
Description: as §1

[11] = test system: Staphylococcus aureus SG511; settings: 2-fold agar dilution, Muller-Hinton agar, 18 hours at 37° C., read-out: minimum inhibitory concentration (MIC)
Description: as §1

[12] = test system: Streptococcus pyogens 77A; settings: 2-fold agar dilution, Muller-Hinton agar, 18 hours at 37° C., read-out: minimum inhibitory concentration (MIC)
Description: as §1

`CON=C1CN(c2cc3c(cc2F)c(=O)c(C(=O)O)cn3C2CC2)CC12CNC2.CS(=O)(=O)O` [Example 2, 1-Cyclopropyl-6-fluoro-7-[8-(methoxyimino)-2,6-diazaspiro[3,4]oct-6-yl]-4-oxo-1,4-dihydro-3-quinolinecarboxylic acid methane sulfonate] gave an MIC [1] of 0.391 µg/mL, an MIC [2] of 0.391 µg/mL and an MIC (Esherichia coli TEM) of 0.049 µg/mL. It also gave an MIC [3] of 0.098 µg/mL, an MIC [4] of 0.049 µg/mL and an MIC (Enterobacter clocae P99) of 0.049 µg/mL. The MIC [5] was 0.195 µg/mL, the MIC (Klebsiella oxytoca 1082E) was 0.007 µg/mL and the MIC (Esherichia coli 078) was 0.025 µg/mL. For the same compound, the MIC [6] was 0.025 µg/mL, the MIC [7] was 0.781 µg/mL and the MIC (Esherichia coli DC0) was 0.198 µg/mL. The MIC (Esherichia coli DC2) was 0.013 µg/mL, the MIC (Salmonella typhimurium) was 0.025 µg/mL and the MIC [8] was 0.391 µg/mL. The MIC [9] was 0.049 µg/mL, the MIC (Esherichia coli 1507E) was 0.049 µg/mL and the MIC [10] was 0.098 µg/mL. For the same compound, the MIC [11] was 0.013 µg/mL and the MIC [12] was 0.007 µg/mL.

Work on `CON=C1CN(c2c(F)cc3c(=O)c(C(=O)O)cn(C4CC4)c3c2F)CC12CNC2` [Example 3, 1-Cyclopropyl-6,8-difluoro-7-[8-(methoxyimino)-2,6-diazaspiro[3,4]oct-6-yl]-4-oxo-1,4-dihydro-3-quinolinecarboxylic acid] yielded an MIC [1] of 0.781 µg/mL (≈ 1.87 µM), an MIC [2] of 1.56 µg/mL (≈ 3.74 µM) and an MIC (Esherichia coli TEM) of 0.049 µg/mL (≈ 0.117 µM). The MIC [3] was 0.098 µg/mL (≈ 0.234 µM), the MIC [4] was 0.049 µg/mL (≈ 0.117 µM) and the MIC (Enterobacter clocae P99) was 0.049 µg/mL (≈ 0.117 µM). It also gave an MIC [5] of 0.391 µg/mL (≈ 0.935 µM), an MIC (Klebsiella oxytoca 1082E) of 0.007 µg/mL (≈ 0.0167 µM) and an MIC (Esherichia coli 078) of 0.098 µg/mL (≈ 0.234 µM). It also gave an MIC [6] of 0.025 µg/mL (≈ 0.0598 µM), an MIC [7] of 1.56 µg/mL (≈ 3.74 µM) and an MIC (Esherichia coli DC0) of 0.391 µg/mL (≈ 0.935 µM). It also gave an MIC (Esherichia coli DC2) of 0.025 µg/mL (≈ 0.0598 µM), an MIC (Salmonella typhimurium) of 0.025 µg/mL (≈ 0.0598 µM) and an MIC [8] of 0.781 µg/mL (≈ 1.87 µM). It also gave an MIC [9] of 0.098 µg/mL (≈ 0.234 µM), an MIC (Esherichia coli 1507E) of 0.049 µg/mL (≈ 0.117 µM) and an MIC [10] of 0.098 µg/mL (≈ 0.234 µM). The MIC [11] was 0.025 µg/mL (≈ 0.0598 µM) and the MIC [12] was 0.025 µg/mL (≈ 0.0598 µM).
